Structures are written as SMILES. The source made the active and inactive calls.

Assay [1] addresses Mitochondrial peptide methionine sulfoxide reductase (Bos taurus, UniProt P54149). The assay is described as follows: Absorbance-based biochemical high throughput dose response assay for activators of Methionine sulfoxide reductase A (MsrA). Format: functional.
A short description of assay [2]: viability loss in THP-1 monocytes – THP-1 cells, cytotoxicity control for Vif-APOBEC3G degradation inhibitor project, dose response (AID 1117359). The format is functional. The following applies: THP-1.
Assay [3] addresses T1, Tyrosyl-DNA phosphodiesterase 2 (Homo sapiens, UniProt O95551).
T1 sequence (O95551 whole entry): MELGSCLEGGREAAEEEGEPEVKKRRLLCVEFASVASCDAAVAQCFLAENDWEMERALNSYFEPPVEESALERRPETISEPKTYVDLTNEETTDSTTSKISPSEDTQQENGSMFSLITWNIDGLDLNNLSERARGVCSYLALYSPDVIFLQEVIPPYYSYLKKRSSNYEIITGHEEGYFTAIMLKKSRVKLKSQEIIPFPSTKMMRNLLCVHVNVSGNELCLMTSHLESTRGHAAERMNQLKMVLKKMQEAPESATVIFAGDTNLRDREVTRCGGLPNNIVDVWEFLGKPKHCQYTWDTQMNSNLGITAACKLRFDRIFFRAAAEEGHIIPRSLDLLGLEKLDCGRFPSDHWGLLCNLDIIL
The assay is described as follows: potency against TDP2 phosphodiesterase activity – biochemical, epi absorbance, IC50, dose response (AID 743297).

A further assay has as its target T2, Cysteine protease ATG4B (Homo sapiens, UniProt Q9Y4P1).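 Further: Fluorescence-based dose-response confirmation assay measuring inhibition of ATG4B activity.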
T2 sequence (Q9Y4P1 whole entry): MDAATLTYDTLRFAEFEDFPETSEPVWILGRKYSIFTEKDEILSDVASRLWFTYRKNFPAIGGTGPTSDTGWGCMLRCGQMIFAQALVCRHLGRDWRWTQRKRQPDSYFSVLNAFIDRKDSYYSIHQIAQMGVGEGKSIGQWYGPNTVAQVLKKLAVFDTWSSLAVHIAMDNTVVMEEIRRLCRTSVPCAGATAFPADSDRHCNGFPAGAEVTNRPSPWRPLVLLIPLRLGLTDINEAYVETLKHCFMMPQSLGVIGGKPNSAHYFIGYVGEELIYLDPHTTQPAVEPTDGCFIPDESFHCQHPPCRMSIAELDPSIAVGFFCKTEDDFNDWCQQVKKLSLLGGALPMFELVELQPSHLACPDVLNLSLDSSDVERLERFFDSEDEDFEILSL
The format is functional.

For assay [4], the target named is T3, Histone-lysine N-methyltransferase NSD2 (Homo sapiens, UniProt O96028).
T3 sequence (O96028 whole entry): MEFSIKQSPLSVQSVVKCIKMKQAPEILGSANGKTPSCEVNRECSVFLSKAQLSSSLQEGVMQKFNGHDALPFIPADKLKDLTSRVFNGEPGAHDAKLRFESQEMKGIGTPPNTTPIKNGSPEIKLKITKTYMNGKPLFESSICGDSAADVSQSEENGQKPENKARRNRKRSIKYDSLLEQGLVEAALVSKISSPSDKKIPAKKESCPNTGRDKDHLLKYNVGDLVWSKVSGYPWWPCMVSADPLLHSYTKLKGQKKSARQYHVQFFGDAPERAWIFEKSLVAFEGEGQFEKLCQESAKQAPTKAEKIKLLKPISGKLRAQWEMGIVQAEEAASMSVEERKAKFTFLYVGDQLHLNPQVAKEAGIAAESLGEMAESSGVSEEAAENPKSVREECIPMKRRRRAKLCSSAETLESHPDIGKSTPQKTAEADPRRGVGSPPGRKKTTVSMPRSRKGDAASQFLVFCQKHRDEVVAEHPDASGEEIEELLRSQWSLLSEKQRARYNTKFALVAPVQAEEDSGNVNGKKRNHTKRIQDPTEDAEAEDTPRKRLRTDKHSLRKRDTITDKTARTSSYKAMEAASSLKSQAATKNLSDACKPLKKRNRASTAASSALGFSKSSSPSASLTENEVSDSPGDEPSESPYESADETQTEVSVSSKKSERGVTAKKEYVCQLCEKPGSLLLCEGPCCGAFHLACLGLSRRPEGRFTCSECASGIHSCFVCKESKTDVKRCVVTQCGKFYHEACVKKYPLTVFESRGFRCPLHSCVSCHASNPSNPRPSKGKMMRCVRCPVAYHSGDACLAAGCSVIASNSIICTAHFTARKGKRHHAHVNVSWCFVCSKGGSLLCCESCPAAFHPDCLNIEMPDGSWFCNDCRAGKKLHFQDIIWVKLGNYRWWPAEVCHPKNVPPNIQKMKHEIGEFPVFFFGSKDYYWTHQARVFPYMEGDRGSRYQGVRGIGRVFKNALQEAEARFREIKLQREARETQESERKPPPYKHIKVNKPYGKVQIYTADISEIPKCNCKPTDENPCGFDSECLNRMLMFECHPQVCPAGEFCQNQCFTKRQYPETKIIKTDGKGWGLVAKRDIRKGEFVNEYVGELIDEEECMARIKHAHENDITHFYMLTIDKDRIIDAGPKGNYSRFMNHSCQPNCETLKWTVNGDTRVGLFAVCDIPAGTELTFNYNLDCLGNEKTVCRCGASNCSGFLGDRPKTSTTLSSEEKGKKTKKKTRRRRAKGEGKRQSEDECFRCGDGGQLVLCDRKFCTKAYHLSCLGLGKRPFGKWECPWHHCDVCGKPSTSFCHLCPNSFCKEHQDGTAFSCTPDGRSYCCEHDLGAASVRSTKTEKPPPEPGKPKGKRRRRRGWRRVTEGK
The format is biochemical.

The target of assay [5] is Dual specificity tyrosine-phosphorylation-regulated kinase 1A (Rattus norvegicus, UniProt Q63470). The format is biochemical, Homo sapiens.
The next assay concerns the target Paired box protein Pax-8 (Homo sapiens, UniProt Q06710). The assay is described as follows: PAX8 transcriptional activity inhibition in RMG-I – RMG-I cells, luciferase, cherry-pick, dose response (AID 687027).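 Further: luciferase reporter driven by Pax8 target thyroperoxidase promoter measured by SteadyGlo luminescence.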 Format: functional, cell-based.
The nature of assay [6]: general cell-killing toxicity readout – plate reader, dry powder samples, cytotoxicity control for PAX8 inhibitor project, dose response (AID 743021). Format: functional, cell-based.
The target in the next assay is Phospholipase A2 (Homo sapiens, UniProt P04054). Format: functional.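 Further: confirmatory dose-response counterscreen on phospholipase A2, testing hits that came from an ultra-high-throughput screen for ATG4B inhibitors.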
Chain of Phospholipase A2 (P04054 whole entry): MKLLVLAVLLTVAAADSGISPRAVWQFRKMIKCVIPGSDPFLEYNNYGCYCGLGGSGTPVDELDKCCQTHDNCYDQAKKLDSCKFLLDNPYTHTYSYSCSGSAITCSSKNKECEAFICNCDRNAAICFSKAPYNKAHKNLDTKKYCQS
The next assay deals with Vero. The assay is described as follows: viability of Vero cells under compound – cytotoxicity control for flavivirus capping enzyme inhibitors (AID 588742). Format: functional. To be noted: Chlorocebus sabaeus.
Another assay addresses T4, Hexokinase HKDC1 (Homo sapiens, UniProt Q2TB90).
T4 sequence (Q2TB90 whole entry): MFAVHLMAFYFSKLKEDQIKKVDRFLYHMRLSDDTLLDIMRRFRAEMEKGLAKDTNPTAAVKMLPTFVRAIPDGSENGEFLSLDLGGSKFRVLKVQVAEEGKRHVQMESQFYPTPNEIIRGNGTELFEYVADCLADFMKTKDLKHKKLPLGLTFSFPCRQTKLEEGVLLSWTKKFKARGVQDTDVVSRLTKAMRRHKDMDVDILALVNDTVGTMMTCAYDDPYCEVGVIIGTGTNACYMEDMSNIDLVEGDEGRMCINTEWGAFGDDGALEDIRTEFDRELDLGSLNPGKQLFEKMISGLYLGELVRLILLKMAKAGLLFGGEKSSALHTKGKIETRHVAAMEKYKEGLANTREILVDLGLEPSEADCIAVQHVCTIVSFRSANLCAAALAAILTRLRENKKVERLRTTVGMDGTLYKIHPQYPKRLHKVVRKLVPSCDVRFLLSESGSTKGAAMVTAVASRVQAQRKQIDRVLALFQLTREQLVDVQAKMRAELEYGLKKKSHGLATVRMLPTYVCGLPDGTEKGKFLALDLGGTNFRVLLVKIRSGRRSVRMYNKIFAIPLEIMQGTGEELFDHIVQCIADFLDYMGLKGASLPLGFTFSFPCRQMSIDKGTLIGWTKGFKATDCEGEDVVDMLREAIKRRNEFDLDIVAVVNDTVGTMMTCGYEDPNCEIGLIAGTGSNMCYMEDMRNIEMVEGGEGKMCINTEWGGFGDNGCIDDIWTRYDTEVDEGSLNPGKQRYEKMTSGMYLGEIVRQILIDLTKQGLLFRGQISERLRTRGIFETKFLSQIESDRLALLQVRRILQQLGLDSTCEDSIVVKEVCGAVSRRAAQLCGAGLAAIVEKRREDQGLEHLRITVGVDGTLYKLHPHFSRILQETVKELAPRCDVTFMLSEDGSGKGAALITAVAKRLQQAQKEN
The assay is described as follows: inhibition of HKDC1 glucose phosphorylation – biochemical, W721R variant, dose response (AID 504729). Format: functional.

For a further assay, the target named is Genome polyprotein (dengue virus type 2, UniProt P29990). Nature of the assay: flavivirus cap methylation enzyme inhibition – biochemical, confirmation dose response, primary screen (AID 588689). The format is functional.
Chain of Genome polyprotein (P29990 2492-3391 limits assumed): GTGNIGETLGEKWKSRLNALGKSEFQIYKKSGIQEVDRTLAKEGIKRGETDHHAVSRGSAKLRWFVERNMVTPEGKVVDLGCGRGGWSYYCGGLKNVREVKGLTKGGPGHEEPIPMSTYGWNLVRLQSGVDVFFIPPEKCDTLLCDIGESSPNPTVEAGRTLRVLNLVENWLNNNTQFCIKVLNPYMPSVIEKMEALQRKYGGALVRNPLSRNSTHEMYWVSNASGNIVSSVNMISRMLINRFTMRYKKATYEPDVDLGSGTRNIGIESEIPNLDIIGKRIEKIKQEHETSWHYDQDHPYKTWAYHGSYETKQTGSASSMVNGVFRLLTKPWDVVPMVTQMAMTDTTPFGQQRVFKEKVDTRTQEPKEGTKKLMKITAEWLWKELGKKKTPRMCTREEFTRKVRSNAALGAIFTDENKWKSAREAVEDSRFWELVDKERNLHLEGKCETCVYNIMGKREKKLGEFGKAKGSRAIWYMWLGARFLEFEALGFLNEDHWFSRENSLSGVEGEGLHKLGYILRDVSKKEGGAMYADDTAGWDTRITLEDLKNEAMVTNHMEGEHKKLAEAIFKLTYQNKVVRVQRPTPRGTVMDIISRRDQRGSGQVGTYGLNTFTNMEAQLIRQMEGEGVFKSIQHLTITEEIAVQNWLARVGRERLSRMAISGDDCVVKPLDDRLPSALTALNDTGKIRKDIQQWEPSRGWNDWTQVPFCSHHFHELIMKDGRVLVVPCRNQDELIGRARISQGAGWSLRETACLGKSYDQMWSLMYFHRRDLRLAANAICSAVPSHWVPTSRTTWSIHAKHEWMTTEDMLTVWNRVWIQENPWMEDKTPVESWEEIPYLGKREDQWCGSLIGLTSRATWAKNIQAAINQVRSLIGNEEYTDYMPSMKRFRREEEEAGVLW
Assay [7] has as its target Ras and Rab interactor 1/Tyrosine-protein kinase ABL1 (Homo sapiens, UniProt P00519+Q13671). The format is functional.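 Further: biochemical TR-FRET dose-response test measuring inhibition of binding between Rin1 and Abl proteins.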

Chain of Ras and Rab interactor 1/Tyrosine-protein kinase ABL1 (P00519 whole entry): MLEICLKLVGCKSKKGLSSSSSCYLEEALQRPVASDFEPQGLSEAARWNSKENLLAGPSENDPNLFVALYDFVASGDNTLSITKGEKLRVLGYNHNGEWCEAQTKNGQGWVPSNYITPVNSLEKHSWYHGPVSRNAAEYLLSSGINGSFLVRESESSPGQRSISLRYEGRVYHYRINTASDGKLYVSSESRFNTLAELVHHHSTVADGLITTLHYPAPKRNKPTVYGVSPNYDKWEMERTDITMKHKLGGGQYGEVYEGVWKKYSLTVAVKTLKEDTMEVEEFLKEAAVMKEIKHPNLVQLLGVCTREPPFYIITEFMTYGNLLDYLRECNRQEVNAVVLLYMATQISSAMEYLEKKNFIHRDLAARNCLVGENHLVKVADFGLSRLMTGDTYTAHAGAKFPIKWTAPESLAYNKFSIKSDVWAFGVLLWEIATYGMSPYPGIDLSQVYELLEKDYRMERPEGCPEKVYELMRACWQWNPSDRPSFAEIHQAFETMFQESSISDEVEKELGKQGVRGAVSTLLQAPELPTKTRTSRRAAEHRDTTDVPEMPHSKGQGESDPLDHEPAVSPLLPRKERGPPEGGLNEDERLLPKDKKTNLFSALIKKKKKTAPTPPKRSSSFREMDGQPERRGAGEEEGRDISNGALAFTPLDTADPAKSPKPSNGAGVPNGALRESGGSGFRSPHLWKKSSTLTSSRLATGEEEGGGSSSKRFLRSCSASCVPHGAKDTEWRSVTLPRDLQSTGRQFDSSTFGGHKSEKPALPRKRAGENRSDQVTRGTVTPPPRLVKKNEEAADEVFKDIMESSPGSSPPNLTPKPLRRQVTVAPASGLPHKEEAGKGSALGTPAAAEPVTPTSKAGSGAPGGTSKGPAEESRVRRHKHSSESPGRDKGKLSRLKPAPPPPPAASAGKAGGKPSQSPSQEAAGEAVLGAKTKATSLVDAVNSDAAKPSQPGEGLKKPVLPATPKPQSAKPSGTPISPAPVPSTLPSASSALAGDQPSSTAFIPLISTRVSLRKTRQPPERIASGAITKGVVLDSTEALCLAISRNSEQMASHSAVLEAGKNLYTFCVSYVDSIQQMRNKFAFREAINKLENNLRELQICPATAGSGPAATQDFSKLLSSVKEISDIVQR
Chain of Ras and Rab interactor 1/Tyrosine-protein kinase ABL1 (Q13671 whole entry): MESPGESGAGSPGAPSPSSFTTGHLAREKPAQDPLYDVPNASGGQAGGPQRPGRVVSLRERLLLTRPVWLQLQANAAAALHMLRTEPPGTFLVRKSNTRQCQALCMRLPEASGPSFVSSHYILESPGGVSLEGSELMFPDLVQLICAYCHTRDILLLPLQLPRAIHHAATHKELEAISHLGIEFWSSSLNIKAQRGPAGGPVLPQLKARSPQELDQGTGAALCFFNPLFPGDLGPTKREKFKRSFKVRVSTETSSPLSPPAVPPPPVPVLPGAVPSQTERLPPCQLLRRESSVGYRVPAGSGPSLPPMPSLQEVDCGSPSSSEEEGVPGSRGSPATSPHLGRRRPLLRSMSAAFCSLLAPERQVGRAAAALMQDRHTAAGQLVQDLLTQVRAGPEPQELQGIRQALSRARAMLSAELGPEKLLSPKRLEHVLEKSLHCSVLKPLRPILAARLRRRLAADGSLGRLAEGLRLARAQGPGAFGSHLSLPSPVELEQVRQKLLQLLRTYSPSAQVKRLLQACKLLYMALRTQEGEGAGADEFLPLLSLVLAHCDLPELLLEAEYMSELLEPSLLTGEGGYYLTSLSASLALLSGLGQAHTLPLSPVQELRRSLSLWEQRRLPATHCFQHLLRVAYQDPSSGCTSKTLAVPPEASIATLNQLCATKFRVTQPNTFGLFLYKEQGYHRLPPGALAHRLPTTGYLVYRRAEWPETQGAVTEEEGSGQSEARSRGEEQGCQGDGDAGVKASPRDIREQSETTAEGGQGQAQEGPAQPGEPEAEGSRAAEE
Chain of Paired box protein Pax-8 (Q06710 whole entry): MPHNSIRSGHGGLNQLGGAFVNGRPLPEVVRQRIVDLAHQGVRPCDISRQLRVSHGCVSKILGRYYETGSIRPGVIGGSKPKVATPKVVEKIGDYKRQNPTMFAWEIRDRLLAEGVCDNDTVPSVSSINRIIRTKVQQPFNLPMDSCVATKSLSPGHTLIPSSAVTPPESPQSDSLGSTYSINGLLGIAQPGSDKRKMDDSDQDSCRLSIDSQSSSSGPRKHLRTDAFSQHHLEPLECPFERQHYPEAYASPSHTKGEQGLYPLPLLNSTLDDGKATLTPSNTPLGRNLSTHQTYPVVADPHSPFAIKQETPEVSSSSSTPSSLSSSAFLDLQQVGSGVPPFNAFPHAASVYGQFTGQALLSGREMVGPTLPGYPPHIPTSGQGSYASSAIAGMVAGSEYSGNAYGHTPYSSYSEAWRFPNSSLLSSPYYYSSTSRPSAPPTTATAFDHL
Chain of Mitochondrial peptide methionine sulfoxide reductase (P54149 whole entry): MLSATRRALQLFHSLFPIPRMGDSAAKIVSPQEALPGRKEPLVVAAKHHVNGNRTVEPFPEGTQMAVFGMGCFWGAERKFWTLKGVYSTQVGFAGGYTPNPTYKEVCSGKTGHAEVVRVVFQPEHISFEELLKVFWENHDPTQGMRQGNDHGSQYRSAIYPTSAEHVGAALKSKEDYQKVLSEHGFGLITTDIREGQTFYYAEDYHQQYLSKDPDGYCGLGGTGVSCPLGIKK

The term EC50 denotes the concentration giving half of the maximal effect. As a reminder, the CC50 is the concentration that lowers cell viability or growth by half. As a reminder, the IC50 is the concentration at which inhibition is half-maximal. Broadly, the AC50 is the concentration at which the activity in the assay is half-maximal. In the case of `COC1=CC(=O)c2c(ccc3ncnc(N)c23)C1=O`, the EC50 in assay [1] is 14.1 µM (inactive). Moreover, the cytotoxic concentration (CC50) is 10.4 µM (active) in [2] and 4.63 µM (active) in the assay on Vero. Besides, the IC50 in assay [3] is 0.842 µM (active); on Cysteine protease ATG4B, 6.81 µM (active); at Phospholipase A2, > 80 µM (inactive); on Hexokinase HKDC1, 1.56 µM (active); at Genome polyprotein, 62.4 µM (active); in assay [7] it was > 73.4 µM (inactive). Also, the concentration at half-maximal activity (AC50) in assay [4] is 1.28 µM (active); in [5], 2.53 µM (active); at Paired box protein Pax-8 it was 1.06 µM (active); in assay [6] it was 9.49 µM (active).

Values taken from ChEMBL document CHEMBL1201862, “PubChem BioAssay data set” (2004).
